Measurements: PMC6151456, “Screening a Natural Product-Based Library against Kinetoplastid Parasites” (Molecules : A Journal of Synthetic Chemistry and Natural …, 2017)
Like-named read-outs stand apart in the source and are kept apart here.

How the values were obtained:
HEK-293 cells = test: HEK-293 resazurin viability assay (cytotoxicity, selectivity); assay type: cell-based, human
Protocol: (§1) Primary screening against T. b. brucei was undertaken at 5 µM and for T. cruzi at 10 µM final concentrations.
Cytotoxicity testing was undertaken as previously described.

THP-1 cells = test: THP-1 cytotoxicity (selectivity); assay type: cell-based, human
Protocol: (§2) For the primary screen, compounds were prepared as a stock concentration of 5 mM in 100% DMSO and tested in duplicate points for two independent experiments (n = 2) at final assay concentrations of 20 µM and 16.7 µM for the L. donovani intracellular amastigote and promastigote viability assays, respectively. Primary screening against T. b. brucei was undertaken at 5 µM and for T. cruzi at 10 µM final concentrations. […] These compounds were then retested in a 14 point format to determine the IC50 value against the parasite, and against HEK-293, THP-1 and 3T3 cells to determine the selectivity to the parasite. […] A top dose of 20 µM was used in the T. b. brucei assay and 18.3 µM for T.cruzi assay, in 14 point dose repsonse curves as described.

[1] = tested on: L. donovani DD8 intracellular amastigotes; test: L. donovani DD8 intracellular amastigote high content imaging assay; assay type: cell-based, Leishmania donovani; details: 14 point dose response, top 20 µM
Protocol: as §2
A high content, high-throughput imaging assay was used to identify compounds active against L. donovani DD8 intracellular amastigotes as described previosuly.

[2] = tested on: L. donovani DD8 promastigotes; test: L. donovani DD8 promastigote viability assay (resazurin); assay type: cell-based, Leishmania donovani; details: for IC50: 14 point dose response, top 16.7 µM
Protocol: as §2
This assay was established to assess the activity of the compound library on the extracellular form of the parasites. An initial cell density of 1 × 10^5 parasites/mL was inoculated into a 75 cm^2 flask (in a total of 30 mL of M199 medium + 10% (v/v) HIFBS) and incubated at 27 °C. After 96 h the parasites reached the mid-log phase and were seeded in black, clear bottom 384-well plates (Greiner-bio-one®, Monroe, UT, USA) at a concentration of 5 × 10^5 parasites/mL in a volume of 55 µL using a Bravo automated liquid handling platform (Agilent, Santa Clara, CA, USA). Compound stocks were diluted 1:25 in M199 media without HIFBS using a dilution plate (Greiner-bio-one®, Monroe, UT, USA). The compounds were dispensed in 5 µL using a Bravo and parasites incubated for an additional 68 h at 27 °C. Resazurin (Cayman Chemicals®, Ann Arbor, MI, USA) at 0.142 mM final assay concentration was then dispensed into plates at a volume of 10 µL/well using a Multidrop™ 384 Reagent Dispenser (Thermo Scientific®, Newington, NH, USA) and incubated at 27 °C. The plates were read after 4 h on an EnVision™ Multilabel plate reader (PerkinElmer, Waltham, MA, USA) using fluorometry with an excitation of 530 nm and emission 590 nm. For the L. donovani DD8 promastigote viability assay, 1 µM of amphotericin B was used as positive control and 0.4% DMSO as negative control.

[3] = tested on: T. cruzi intracellular amastigotes; test: T. cruzi intracellular amastigote image-based assay; assay type: cell-based, Trypanosoma cruzi; details: for IC50: n = 2, top 18.3 µM
Protocol: as §2
(§3) The efficacy of compounds against T. cruzi was undertaken using a phenotypic, high-throughput image-based assay as previously described.

3T3 host cells = test: 3T3 host cell cytotoxicity (selectivity); assay type: cell-based, mouse; details: relative to T. cruzi
Protocol: as §1, §3

[4] = tested on: T. b. brucei bloodstream form strain 427; test: T. b. brucei resazurin viability assay; assay type: cell-based, Trypanosoma brucei brucei
Protocol: as §2
The efficacy of compounds against T. b. brucei bloodstream form was evaluated using a resazurin-based assay, previously described in the literature.

P. falciparum (3D7) = details: cited from earlier work
P. falciparum (Dd2) = details: cited from earlier work
L. donovani amastigotes = tested on: L. donovani amastigotes; parameters: method as in PMID 22720099; details: previously reported; read-out: IC50, amastigote assay; cited from earlier work
[5] = relative to L. donovani DD8 intracellular amastigotes
[6] = relative to L. donovani DD8 promastigotes
[7] = Leishmania donovani, n = 2, read-out: IC50 (mean ± SD), L. donovani DD8 intracellular amastigotes
[8] = Leishmania donovani, n = 2, read-out: IC50 (mean ± SD), L. donovani DD8 promastigotes
[9] = Trypanosoma cruzi, intracellular amastigotes, read-out: IC50 (mean ± SD), T. cruzi
[10] = Leishmania donovani, read-out: IC50 (mean ± SD), L. donovani DD8 intracellular amastigotes, n = 2
[11] = Trypanosoma brucei, n = 2, 14 point dose response, top 20 µM, read-out: IC50 (mean ± SD), T. b. brucei
[12] = Leishmania donovani, at 16.7 µM
[13] = n = 2, 14 point dose response, top 20 µM, read-out: IC50 (mean ± SD), T. b. brucei
[14] = Trypanosoma brucei, reference compounds, read-out: IC50, T. b. brucei

Molecule | Selectivity index (SI) compared to HEK-293 cells (HEK-293 cells; [5]) | Selectivity index (SI) compared to THP-1 cells (THP-1 cells; [5]) | Selectivity index (SI) compared to HEK-293 cells (HEK-293 cells; relative to T. cruzi) | IC50 [3, 9] [µM] | Selectivity index (SI) compared to HEK-293 cells (HEK-293 cells; relative to T. b. brucei) | Selectivity index (SI) compared to 3T3 cells (3T3 host cells) | IC50 [4, 11] [µM] | other results
C[C@@H]1[C@H](O)[C@@H](C)/C=C/C=C/C=C/C=C/C=C/C=C/C=C/[C@H](O[C@@H]2O[C@H](C)[C@@H](O)[C@H](N)[C@@H]2O)C[C@@H]2O[C@](O)(C[C@@H](O)C[C@@H](O)[C@H](O)CC[C@@H](O)C[C@@H](O)CC(=O)O[C@H]1C)C[C@H](O)[C@H]2C(=O)O [Amphotericin B, reference compound] | > 41.65 | > 9.61 |  |  |  |  |  | Selectivity index (SI) compared to HEK-293 cells (HEK-293 cells; [6]): > 68.27; Selectivity index (SI) compared to THP-1 cells (THP-1 cells; [6]): > 16.39; IC50 [1, 7]: 0.2 ± 0.02 µM; IC50 [2, 8]: 0.12 ± 0.01 µM
O=C(Cn1ccnc1[N+](=O)[O-])NCc1ccccc1 [Benznidazole, reference compound] |  |  | > 44.84 | 3.36 ± 1.52 |  |  |  | 
COc1c(OC)c2c(c(CCN(C)C)c1SC)Sc1c(CCN(C)C)c(SC)c(OC)c(OC)c1S2 [Compound 1, Lissoclinotoxin E] | > 2.26 | 1.13 | > 2.52 |  | > 17.68 | > 4.67 |  | Selectivity index (SI) compared to HEK-293 cells (HEK-293 cells; [6]): > 11.72; Selectivity index (SI) compared to THP-1 cells (THP-1 cells; [6]): 6.88; IC50 ([3]; Trypanosoma cruzi, read-out: IC50 (mean ± SD), T. cruzi, intracellular amastigotes): < 5 µM; IC50 ([3]; read-out: IC50 (mean ± SD), T. cruzi, intracellular amastigotes, listed as Lissoclinotoxin E (1)): 3.92 ± 0.38 µM; IC50 [1, 10]: < 5 µM; IC50 ([1]; read-out: IC50 (mean ± SD), L. donovani DD8 intracellular amastigotes, n = 2, listed as Lissoclinotoxin E (1)): 4.41 ± 0.24 µM
CC(C)=CCC[C@]1(C)C=Cc2c(O)c3c(c(CC=C(C)C)c2O1)O[C@]12C(=C[C@@H]4C[C@H]1C(C)(C)O[C@@]2(C/C=C(/C)C(=O)O)C4=O)C3=O [Compound 4, Gambogic acid] |  |  | 1.50 | 1.87 ± 0.07 | 7.11 | 1.00 | 0.27 ± 0.04 | inhibition at 16.7 µM [2, 12]: 100%
COc1c(C)c2c(c(O)c1C/C=C(\C)CCC(=O)O)C(=O)OC2 [Compound 5, Mycophenolic acid, reference compound] |  |  | 0.37 | 1.59 ± 0.03 | 1.01 | 0.13 | 0.51 ± 0.1 | 
O=C1N[C@@H]2C(=C[C@H](O)[C@@H](O)[C@H]2O)c2cc3c(c(O)c21)OCO3 [Compound 6, Narciclasine] |  |  | 0.21 |  | 1.09 | 3.28 |  | IC50 ([3]; intracellular amastigotes, read-out: IC50 (mean ± SD), T. cruzi): 0.2 ± 0.01 µM; IC50 [4, 13]: 0.03 ± 0.01 µM; inhibition of L. donovani DD8 promastigotes ([2]; at 16.7 µM): 100% inhibition at 16.7 µM
Cc1ccc(S(=O)(=O)n2ccc3c2C(=O)C2=C(NCCS2(=O)=O)C3=O)cc1 [Compound 7, 6-tosyl-2,3-dihydro-[1, 4]thiazino[3,2-f]indole-5,9(1H,6H)-dione 4,4-dioxide] |  |  | 1.46 | 3.55 ± 0.38 | 4.19 | 1.33 | 0.68 ± 0.01 | IC50 (P. falciparum (3D7); read-out: IC50, 3D7 strain of P. falciparum): 0.546 ± 0.119 µM; IC50 (P. falciparum (Dd2); read-out: IC50, Dd2 strain of P. falciparum): 0.509 ± 0.0309 µM
O=C1C2=C(C(=O)c3ccccc31)S(=O)(=O)CCN2 [Compound 9, 3,4-dihydro-2H-naphtho[2,3-b][1,4]thiazine-5,10-dione 1,1-dioxide] |  |  | 1.11 | 3.82 ± 0.61 |  | 1.24 |  | IC50 ([3]; intracellular amastigotes, listed as 3,4-Dihydro-2H-naphtho[2,3-b]-[1,4] thiazine-5,10-dione 1,1-dioxide (9), read-out: IC50 (mean ± SD), T. cruzi): 3.81 ± 0.6 µM; inhibition at 16.7 µM [2, 12]: 100%
COc1c(SC)c(CCN(C)C)c2sc3c(CCN(C)C)c(SC)c(OC)c(OC)c3ssc2c1OC [Compound 11, Lissoclinotoxin F] | > 2.40 | > 1.20 |  |  |  |  |  | Selectivity index (SI) compared to HEK-293 cells (HEK-293 cells; [6]): > 3.62; Selectivity index (SI) compared to THP-1 cells (THP-1 cells; [6]): > 1.81; IC50 [1, 10]: 8.31 ± 0.67 µM; IC50 ([2]; Leishmania donovani, read-out: IC50 (mean ± SD), L. donovani DD8 promastigotes, n = 2): 5.51 ± 0.3 µM
CCOC(=O)c1c(C)n(-c2ccc(OC)cc2)c2ccc(O)c(CN(CC)CC)c12 [Compound 12, ethyl 4-((diethylamino)methyl)-5-hydroxy-1-(4-methoxyphenyl)-2-methyl-1H-indole-3-carboxylate] | > 2.97 | > 1.50 |  |  |  |  |  | activity against T. cruzi [3]: no significant activity; IC50 [1, 7]: 11.1 ± 0.31 µM; activity against T. b. brucei [4]: no significant activity; inhibition at 16.7 µM [2, 12]: 100%
N=C(N)c1ccc(/N=N/Nc2ccc(C(=N)N)cc2)cc1 [Diminazene] |  |  |  |  | > 962.75 |  | 0.04 ± 0.01 | IC50 [4, 14]: 0.0405 ± 0.0128 µM
CCCCCCCCCCCCCCCCOP(=O)([O-])OCC[N+](C)(C)C [Miltefosine, reference compound] | > 13.12 | > 7.27 |  |  |  |  |  | Selectivity index (SI) compared to HEK-293 cells (HEK-293 cells; [6]): > 9.57; IC50 (L. donovani amastigotes): 3.1 ± 2.3 µM; Selectivity index (SI) compared to THP-1 cells (THP-1 cells; [6]): > 5.74; IC50 [1, 7]: 2.54 ± 0.57 µM; IC50 [2, 8]: 3.48 ± 0.26 µM
CC1CS(=O)(=O)CCN1/N=C/c1ccc([N+](=O)[O-])o1 (stereo not shown) [Nifurtimox, reference compound] |  |  | > 243.03 | 0.62 ± 0.1 |  |  |  | 
N=C(N)c1ccc(OCCCCCOc2ccc(C(=N)N)cc2)cc1 [Pentamidine] |  |  |  |  | > 334.52 |  | 0.002 ± 0.001 | IC50 [4, 14]: 0.00286 ± 0.00146 µM
COc1ccc(C[C@H](N)C(=O)N[C@H]2[C@@H](O)[C@H](n3cnc4c(N(C)C)ncnc43)O[C@@H]2CO)cc1 [Puromycin, reference compound] |  |  | 0.150 | 1.65 ± 0.35 | 12.96 |  | 0.03 | IC50 [4, 14]: 0.039 ± 0.00609 µM
Psammaplysin F [Compound 14] |  |  | > 3.51 |  |  | > 1.90 |  | IC50 (P. falciparum (3D7); read-out: IC50, P. falciparum 3D7): 0.87 µM; IC50 ([3]; intracellular amastigotes, listed as Psammaplysin F (14), read-out: IC50 (mean ± SD), T. cruzi): 5.63 ± 0.76 µM; IC50 (P. falciparum (Dd2); read-out: IC50, P. falciparum Dd2): 1.4 µM
Spermatinamine [Compound 2] | 0.64 | 0.80 |  |  | 5.89 |  |  | IC50 (P. falciparum (3D7); read-out: antimalarial IC50, P. falciparum (3D7)): 0.23 µM; Selectivity index (SI) compared to HEK-293 cells (HEK-293 cells; [6]): 0.33; Selectivity index (SI) compared to THP-1 cells (THP-1 cells; [6]): 0.41; IC50 ([1]; n = 2, read-out: IC50 (mean ± SD), L. donovani DD8 intracellular amastigotes): 6.15 ± 0.05 µM; IC50 [4, 13]: 1 ± 0.26 µM; IC50 ([2]; n = 2, read-out: IC50 (mean ± SD), L. donovani DD8 promastigotes): 11.9 ± 0.56 µM
